# Measured values taken from patent US20250154202A1, “CYCLIC EPITOPE TAGS” (BIONTECH SE, priority 2022, published 2025).
# Bridge positions count the residues as written; N and C are the ends. Peptide text beside a SMILES is read from it.
# Tests used:
# [1] = target: NbALFA; experiment: SPR measurements of NbALFA binding (Biacore T200, multi cycle kinetics, 1:1 binding model); details: for Kd / ka / kd: 25° C., HBS-EP+ buffer, biotinylated NbALFA captured
# Description: Affinity measurements were performed using a Biacore T200 (GE Healthcare, Biacore T200 control Software 3.2). […] A freshly docked Biotin CAPture chip was rehydrated overnight in the instrument (standby mode). […] The immobilization of the Nanobody was done for 180 s at 10 μL/min on FC2 followed by quenching of unbound streptavidin by 0.1 mM biocytin for 60 s and 30 μL/min on both flow cells. […] After each cycle, the surface was regenerated for 120 s with 10 μL/min using regeneration solution. All measurements were performed at 25° C. using HBS-EP+ buffer (Cytiva Europe, Cat. no BR100669). The control responses from FC1 were subtracted by the sample measurement in FC2 (FC2−FC1) followed by subtraction of the 0 nM blank injection. Resulting binding curves of this multi cycle kinetic experiment were fitted using the Biacore T200 Evaluation Software 3.2 and a 1:1 binding model.
# [2] = Plasma stability, human plasma; details: for remaining at 1 h, 10 µM / remaining at 3 h, 10 µM / remaining at 6 h, 10 µM / half-life: human; for remaining at 1 h, 10 µM / remaining at 3 h, 10 µM / remaining at 6 h, 10 µM: human Li-heparin plasma; for half-life: plasma
# [3] = Plasma stability, mouse plasma; details: for remaining at 1 h, 10 µM / remaining at 3 h, 10 µM / remaining at 6 h, 10 µM: Balb C, Li-heparin plasma; for remaining at 1 h, 10 µM / remaining at 3 h, 10 µM / remaining at 6 h, 10 µM / half-life: mouse; for Conc. (% of T0) / Mean (compound concentration) / Tube 2 (compound concentration) / Tube 1 (compound concentration) / half-life: mouse plasma, 37° C.; for half-life: plasma
# Description: Plasma stability measurements were performed by spiking 5 μl of a 1 mM compound stock solution in DMSO into 495 μl of human or mouse Li-heparin plasma (Innovative Research, Cat. No, IPLALIH5OML (human) and IMS-BC-N (Balb C mouse). The spiked plasma was distributed in 50 μl aliquots into capped PCR tubes for incubation at 37° C. At each time point (0, 2, 6, 24 hours*) 3*aliquots were withdrawn from the incubator. Enzymatic reactions were quenched directly after withdrawal by adding 100 μl of acetonitrile/formic acid=99/1 (v/v). Quenched samples were stored at ambient temperature until the end of the incubation period (24 hrs*). After centrifugation, the supernatant was transferred into fresh vials and analyzed by LC-MS/MS in ESI positive mode (Waters ACQUITY UPLC I-Class System (SM-FTN) with Xevo TQD triple quadrupole mass spectrometer with control software Waters MassLynx). […] Values below the limit of quantification (0.1 μM) and outliers of triplicate results were excluded from further calculations. An exponential regression curve was fitted onto the concentration results. Half-life times were calculated from the slope of the regression curve (t1/2=ln(2)/slope).
# For some samples, as indicated below, the incubation time was 6 hours. The 24 hour data was measured in triplicates whereas the 6 hour data was measured in duplicates.
# [4] = Pharmacokinetic study in mouse, intravenous bolus, plasma LC-MS/MS, non-compartmental analysis; details: for AUC(0-inf): AUC0-inf; for AUC(0-t): AUC0-t
# Description: C57BL/6NRj mice were obtained from Janvier Labs, France. In this study, approximately 8-week-old female mice were used.
# Prior to administration into the lateral tail vein, the body weight of the animals was determined to calculate the individual volume of the injecting compound (5 mL/kg body weight). The injection, as well as the blood sampling, were carried out under short anesthesia (0.7 L/min O2, 1.7 L/min N2O, 2% Isoflurane). Blood was sampled from the retro-orbital plexus using microhematocrit capillary (Ø 0.8 mm) and collected into K3EDTA tubes, at the time points indicated in Table 10.
# The plasma was separated by centrifugation (10,000×g; 10 min; 4° C.), aliquoted into microtubes and stored at −80° C.
# 20 μl of each plasma sample was transferred into PCR tubes. 80 μl IS (internal standard)-solution in acetonitrile+1% FA was added for protein precipitation.
# The sample tubes were sealed with pierceable cap mats and vortexed. After homogenization for 5 min in an ultrasonic bath the samples were centrifuged at 3000 rpm at ambient temperature for 15 min. 1 μl supernatant was injected into the instrument for LC-MS/MS analysis. For LC-MS/MS quantification a ExionLC™ UHPLC coupled to a QTRAP® 6500+ mass spectrometer (Sciex) was used in ESI positive mode. Parameters for mass spectrometry were listed in the tables below, Chromatographic separation was achieved on a ACQUITY UPLC BEH C18 column (Waters, 1.7 μm, 2.1×50 mm).
# Compound concentrations in plasma samples were calculated using a 10-point calibration curve in plasma over a concentration range of 1 to 1000 ng/ml. QC samples of 1, 10, 100, 1000 ng/ml were analyzed before and after each dose group. Samples exceeding the upper limit of quantification (1000 ng/ml) were re-analyzed after 10-fold dilution in blank plasma. All calculations were performed in Sciex OS Version 1.7.0.36606 and MS-EXCEL®.
# Pharmacokinetic parameters were calculated for both compounds using the software Kinetica (version 4.4.1, Thermo Scientific) applying a non-compartmental model (NCA).
# [5] = human plasma, 37° C., timepoint 0 h
# [6] = human plasma, 37° C., timepoint 0 h, calibration range 0.1 to 10 μM
# [7] = human plasma, 37° C., timepoint 1 h
# [8] = human plasma, 37° C., timepoint 3 h
# [9] = human plasma, 37° C., timepoint 6 h
# [10] = Flag (half-life, assay exceeded), human plasma, 37° C.
# [11] = Half-life time, human plasma, 37° C., incubation 24 h (triplicates) or 6 h (duplicates)
# [12] = timepoint 0 h, calibration range 0.1 to 10 μM
# [13] = Flag (half-life, assay exceeded)
# [14] = Half-life time, incubation 24 h (triplicates) or 6 h (duplicates)
# [15] = in vivo, iv, 3 mg/kg, single i.v.
# [16] = in vivo, iv, normalized to a dose of 1 mg/kg, given 3 mg/kg i.v.
compound,measurement,setting,value
"CC(=O)N1CCC[C@H]1C(=O)N[C@@H](CO)C(=O)N[C@@H](CCCNC(=N)N)C(=O)N[C@@H](CC(C)C)C(=O)N[C@@H](CCC(=O)O)C(=O)N[C@H]1CCCCNC(=O)CC[C@@H](C(=O)N[C@@H](CCCNC(=N)N)C(=O)N[C@@H](CC(C)C)C(=O)N[C@H](C(=O)N[C@@H](CCC(=O)O)C(N)=O)[C@@H](C)O)NC(=O)[C@H](CCCNC(=N)N)NC(=O)[C@H](CC(C)C)NC(=O)[C@H](CCC(=O)O)NC1=O [SD15805, Ac-Pro-Ser-Arg-Leu-Glu-(cyclo6)Lys-Glu-Leu-Arg-(cyclo10)Glu-Arg-Leu-Thr-Glu-NH2] (Ac-PSRLEKELRERLTE-NH2; lactam 6-10)",Kd,[1],0.103 nM
same,ka,[1],9.33e+06 M⁻¹ s⁻¹
same,kd,[1],0.000964 s⁻¹
same,Conc. (% of T0),[2]; [5],100.0 % of T0
same,Mean (compound concentration),[2]; [5],2.836
same,Tube 2 (compound concentration),[2]; [5],2.777
same,Tube 1 (compound concentration),[2]; [6],2.894 x
same,Mean (compound concentration),[2]; [7],2.507
same,Tube 1 (compound concentration),[2]; [7],2.529 x
same,Tube 2 (compound concentration),[2]; [7],2.485
same,Mean (compound concentration),[2]; [8],2.356
same,Tube 1 (compound concentration),[2]; [8],2.408 x
same,Tube 2 (compound concentration),[2]; [8],2.304
same,Mean (compound concentration),[2]; [9],2.046
same,Tube 1 (compound concentration),[2]; [9],2.046 x
same,Tube 2 (compound concentration),[2]; [9],2.045
same,"remaining at 1 h, 10 µM",[2],88.4%
same,"remaining at 3 h, 10 µM",[2],83.1%
same,"remaining at 6 h, 10 µM",[2],72.1%
same,half-life,[2]; [10],> 6 h
same,half-life,[2]; [11],13.8 h
same,"remaining at 1 h, 10 µM",[3],82.1%
same,"remaining at 3 h, 10 µM",[3],78.3%
same,"remaining at 6 h, 10 µM",[3],53.8%
same,Conc. (% of T0),[3]; timepoint 0 h,100.0 % of T0
same,Mean (compound concentration),[3]; timepoint 0 h,2.697
same,Tube 2 (compound concentration),[3]; timepoint 0 h,2.811
same,Tube 1 (compound concentration),[3]; [12],2.583 x
same,Mean (compound concentration),[3]; timepoint 1 h,2.213
same,Tube 1 (compound concentration),[3]; timepoint 1 h,2.223 x
same,Tube 2 (compound concentration),[3]; timepoint 1 h,2.203
same,Mean (compound concentration),[3]; timepoint 3 h,2.112
same,Tube 1 (compound concentration),[3]; timepoint 3 h,2.125 x
same,Tube 2 (compound concentration),[3]; timepoint 3 h,2.099
same,Mean (compound concentration),[3]; timepoint 6 h,1.450
same,Tube 1 (compound concentration),[3]; timepoint 6 h,1.429 x
same,Tube 2 (compound concentration),[3]; timepoint 6 h,1.471
same,half-life,[3]; [13],> 6 h
same,half-life,[3]; [14],7.29 h
"CC(=O)N1CCC[C@H]1C(=O)N[C@@H](CO)C(=O)N[C@@H](CCCNC(=N)N)C(=O)N[C@@H](CC(C)C)C(=O)N[C@H]1CCC(=O)NCCCC[C@@H](C(=O)N[C@@H](CCCNC(=N)N)C(=O)N[C@@H](CCCNC(=N)N)C(=O)N[C@@H](CC(C)C)C(=O)N[C@H](C(=O)N[C@@H](CCC(=O)O)C(N)=O)[C@@H](C)O)NC(=O)[C@H](CC(C)C)NC(=O)[C@H](CCC(=O)O)NC(=O)[C@H](CCC(=O)O)NC1=O [SD15806, Ac-Pro-Ser-Arg-Leu-(cyclo5)Glu-Glu-Glu-Leu-(cyclo9)Lys-Arg-Arg-Leu-Thr-Glu-NH2] (Ac-PSRLEEELKRRLTE-NH2; lactam 5-9)",Kd,[1],1.43 nM
same,ka,[1],3.44e+09 M⁻¹ s⁻¹
same,kd,[1],4.94 s⁻¹
same,Conc. (% of T0),[2]; [5],100.0 % of T0
same,Mean (compound concentration),[2]; [5],3.040
same,Tube 2 (compound concentration),[2]; [5],2.965
same,Tube 1 (compound concentration),[2]; [6],3.114 x
same,Mean (compound concentration),[2]; [7],2.859
same,Tube 1 (compound concentration),[2]; [7],2.843 x
same,Tube 2 (compound concentration),[2]; [7],2.874
same,Mean (compound concentration),[2]; [8],2.629
same,Tube 1 (compound concentration),[2]; [8],2.772 x
same,Tube 2 (compound concentration),[2]; [8],2.486
same,Mean (compound concentration),[2]; [9],2.476
same,Tube 1 (compound concentration),[2]; [9],2.534 x
same,Tube 2 (compound concentration),[2]; [9],2.417
same,"remaining at 1 h, 10 µM","[2]; Conc. (% of T0), human plasma, 37° C., timepoint 1 h",94%
same,"remaining at 3 h, 10 µM","[2]; Conc. (% of T0), human plasma, 37° C., timepoint 3 h",86.5%
same,"remaining at 6 h, 10 µM","[2]; Conc. (% of T0), human plasma, 37° C., timepoint 6 h",81.4%
same,half-life,[2]; [10],> 6 h
same,half-life,[2]; [11],20.8 h
same,"remaining at 1 h, 10 µM",[3],88.4%
same,"remaining at 3 h, 10 µM",[3],83.1%
same,"remaining at 6 h, 10 µM",[3],73.7%
same,Conc. (% of T0),[3]; timepoint 0 h,100.0 % of T0
same,Mean (compound concentration),[3]; timepoint 0 h,3.073
same,Tube 2 (compound concentration),[3]; timepoint 0 h,3.145
same,Tube 1 (compound concentration),[3]; [12],3.000 x
same,Mean (compound concentration),[3]; timepoint 1 h,2.717
same,Tube 1 (compound concentration),[3]; timepoint 1 h,2.773 x
same,Tube 2 (compound concentration),[3]; timepoint 1 h,2.661
same,Mean (compound concentration),[3]; timepoint 3 h,2.553
same,Tube 1 (compound concentration),[3]; timepoint 3 h,2.604 x
same,Tube 2 (compound concentration),[3]; timepoint 3 h,2.501
same,Mean (compound concentration),[3]; timepoint 6 h,2.265
same,Tube 1 (compound concentration),[3]; timepoint 6 h,2.258 x
same,Tube 2 (compound concentration),[3]; timepoint 6 h,2.272
same,half-life,[3]; [13],> 6 h
same,half-life,[3]; [14],14.9 h
"CC(=O)N1CCC[C@H]1C(=O)N[C@@H](CO)C(=O)N[C@@H](CCCNC(=N)N)C(=O)N[C@@H](CC(C)C)C(=O)N[C@@H](CCC(=O)O)C(=O)N[C@H]1CCC(=O)NCCCC[C@@H](C(=O)N[C@@H](CCCNC(=N)N)C(=O)N[C@@H](CC(C)C)C(=O)N[C@H](C(=O)N[C@@H](CCC(=O)O)C(N)=O)[C@@H](C)O)NC(=O)[C@H](CCCNC(=N)N)NC(=O)[C@H](CC(C)C)NC(=O)[C@H](CCC(=O)O)NC1=O [SD15341, Ac-Pro-Ser-Arg-Leu-Glu-(cyclo6)Glu-Glu-Leu-Arg-(cyclo10)Lys-Arg-Leu-Thr-Glu-NH2] (Ac-PSRLEEELRKRLTE-NH2; lactam 6-10)",Kd,[1],0.0194 nM
same,ka,[1],1.86e+07 M⁻¹ s⁻¹
same,kd,[1],0.000361 s⁻¹
same,binding with respect to NbALFA,[1]; in words,very good binding
same,half-life,"[4]; female, C57BL/6NRj, plasma, iv, 3 mg/kg",6.69 min
same,area under the curve (AUC) compared to the linear alpha compound,"[4]; i.v., in words",much higher
same,clearance compared to the linear alpha compound,"[4]; i.v., in words",drastically reduced
same,MRT inf,"[4]; in vivo, iv, 3 mg/kg",4.5 min
same,MRT last,"[4]; in vivo, iv, 3 mg/kg",4.47 min
same,Tmax,"[4]; in vivo, iv, 3 mg/kg",1 min
same,clearance,"[4]; in vivo, iv, 3 mg/kg",52.8 mL/min/kg
same,AUC(0-inf),[4]; [15],948 ng·h/mL
same,AUC(0-t),[4]; [15],947 ng·h/mL
same,C0,"[4]; in vivo, iv, 3 mg/kg, C0, single i.v.",15400 ng/mL
same,Cmax,[4]; [15],12700 ng/mL
same,Vd,"[4]; in vivo, iv, 3 mg/kg, Vss, single i.v., 3 mg/kg",0.237 L/kg
same,Vd,"[4]; in vivo, iv, 3 mg/kg, Vz, single i.v.",0.509 L/kg
same,AUC(0-inf),[4]; [16],316 ng·h/mL
same,AUC(0-t),[4]; [16],316 ng·h/mL
same,C0,"[4]; in vivo, iv, C0, normalized to a dose of 1 mg/kg, given 3 mg/kg i.v.",5130 ng/mL
same,Cmax,[4]; [16],4240 ng/mL
same,AUCextra,"[4]; single i.v., 3 mg/kg",0.05%
same,Vc,"[4]; single i.v., 3 mg/kg",0.195 L/kg
same,t1/2effective,"[4]; single i.v., 3 mg/kg",3.10 min
same,t1/2initial,"[4]; single i.v., 3 mg/kg",2.41 min
same,λinitial,"[4]; single i.v., 3 mg/kg",0.29 min⁻¹
same,λterminal,"[4]; single i.v., 3 mg/kg",0.10 min⁻¹
